Among the data in the NIST ThermoML archive (doi:10.1016/j.jct.2013.11.026) are viscosity and mass density values, retold here.

The conditions of the data set: 298.15 K, 101.8 kPa, Liquid; for viscosity: Falling or rolling sphere viscometry; for mass density: Vibrating tube method.

Numbers after ± are expanded uncertainties.

The term viscosity denotes the resistance of a fluid to flow. A word on the mass density: it is mass per unit of volume. Regarding `C=CC(C)(O)CCC=C(C)C` (stereo unspecified) [3,7-dimethyl-1,6-octadien-3-ol], the viscosity was found to be 4.349 ± 0.092 mPa·s and the mass density worked out at 857.28 ± 1 kg/m3.
Take `C=C(C)[C@@H]1CC=C(C)C(=O)C1` [l-carvone]: the viscosity was found to be 2.456 ± 0.052 mPa·s and the mass density came to 958.79 ± 1 kg/m3.
Taken in the same sequence, the figures for `CC1=CCC(C(C)C)=CC1` [1-methyl-4-(1-methylethyl)-1,4-cyclohexadiene] were 1.144 ± 0.031 mPa·s and 844.9 ± 1.9 kg/m3.
`CCO` [ethanol]: the viscosity is on record as 1.125 ± 0.024 mPa·s and the mass density is reported as 785.07 ± 1 kg/m3.
`CC(C)=CCCC(C)=CC=O` [3,7-dimethyl-2,6-octadienal (cis+trans)]: the viscosity is 2.019 ± 0.043 mPa·s and the mass density came out at 883.42 ± 1 kg/m3.
Taken in the same sequence, the figures for `C=C1CC[C@H]2C[C@@H]1C2(C)C` [(1S,5S)-6,6-dimethyl-2-methylenebicyclo[3.1.1]heptane] were 1.616 ± 0.034 mPa·s and 866.93 ± 1 kg/m3.
As to `C=C(C)[C@H]1CC=C(C)CC1` [(R)-1-methyl-4-(1-methylethenyl)cyclohexene], the viscosity was determined as 0.8599 ± 0.022 mPa·s and the mass density was found to be 838.59 ± 1.6 kg/m3.
Taken in the same sequence, the figures for `C=CC(C)(CCC=C(C)C)OC(C)=O` (stereo unspecified) [linalool acetate] were 2.291 ± 0.049 mPa·s and 898.64 ± 1 kg/m3.
